According to ChEMBL document CHEMBL5370683, “Peptide-to-Small Molecule: Discovery of Non-Covalent, Active-Site Inhibitors of β-Herpesvirus Proteases” (ACS Med Chem Lett, 2023):
Peptide text beside a SMILES is read from it.

Key:
[1] = tested on: Human betaherpesvirus 5; assay: Antiviral activity against HCMV infected in HFF cells assessed as reduction in viral replication; type: functional, organism-based; conditions: Human betaherpesvirus 5, HFF
[2] = Cytotoxicity against HFF cells assessed as inhibition in cell viability incubated for 5 days by luminescence based analysis; type: toxicity; conditions: human, time 5 day
[3] = Inhibition of N-terminal 6 His-tagged HHV6 protease (2 to 230 residues) expressed in Escherichia coli BL21 cells using 5FAM-KPSILNASLTPETVKK as peptide substrate incubated for 3 hrs by fluorescence based analysis; parameters: species or system Human betaherpesvirus 6
[4] = Inhibition of amino terminal GST tagged HCMV protease (1 to 256 residues) expressed in Escherichia coli BL21 (DE3) cells using 5-carboxyfluorescein [FAM]-RGVVNASSRLAK as peptide substrate incubated for 3 hrs by fluorescence based analysis; parameters: species or system Human betaherpesvirus 5
[5] = tested on: Human betaherpesvirus 5; assay: Inhibition of amino terminal GST tagged HCMV protease (1 to 256 residues) expressed in Escherichia coli BL21 (DE3) cells using 5-carboxyfluorescein [FAM]-RGVVNASSRLAK as peptide substrate at 99 uM incubated for 3 hrs by fluorescence based analysis relative to control
[6] = tested on: Human betaherpesvirus 6; assay: Inhibition of N-terminal 6 His-tagged HHV6 protease (2 to 230 residues) expressed in Escherichia coli BL21 cells using 5FAM-KPSILNASLTPETVKK as peptide substrate at 99 uM incubated for 3 hrs by fluorescence based analysis relative to control
[7] = Inhibition of N-terminal 6 His-tagged HHV6 protease F1A mutant (2 to 230 residues) expressed in Escherichia coli BL21 cells using 5FAM-KPSILNASLTPETVKK as peptide substrate incubated for 3 hrs by fluorescence based analysis; parameters: species or system Human betaherpesvirus 6
[8] = Inhibition of amino terminal GST tagged HCMV protease F1A mutant (1 to 256 residues) expressed in Escherichia coli BL21 (DE3) cells using 5-carboxyfluorescein [FAM]-RGVVNASSRLAK as peptide substrate incubated for 3 hrs by fluorescence based analysis; parameters: species or system Human betaherpesvirus 5
[9] = Inhibition of N-terminal 6 His-tagged HHV6 protease […] mutant (2 to 230 residues) expressed in Escherichia coli BL21 cells using 5FAM-KPSILNASLTPETVKK as peptide substrate incubated for 3 hrs by fluorescence based analysis; parameters: species or system Human betaherpesvirus 6
[10] = Inhibition of amino terminal GST tagged HCMV protease I2A mutant (1 to 256 residues) expressed in Escherichia coli BL21 (DE3) cells using 5-carboxyfluorescein [FAM]-RGVVNASSRLAK as peptide substrate incubated for 3 hrs by fluorescence based analysis; parameters: species or system Human betaherpesvirus 5
[11] = Inhibition of amino terminal GST tagged HCMV protease T3A mutant (1 to 256 residues) expressed in Escherichia coli BL21 (DE3) cells using 5-carboxyfluorescein [FAM]-RGVVNASSRLAK as peptide substrate incubated for 3 hrs by fluorescence based analysis; parameters: species or system Human betaherpesvirus 5
[12] = Inhibition of N-terminal 6 His-tagged HHV6 protease T3A mutant (2 to 230 residues) expressed in Escherichia coli BL21 cells using 5FAM-KPSILNASLTPETVKK as peptide substrate incubated for 3 hrs by fluorescence based analysis; parameters: species or system Human betaherpesvirus 6
[13] = Inhibition of amino terminal GST tagged HCMV protease H5A mutant (1 to 256 residues) expressed in Escherichia coli BL21 (DE3) cells using 5-carboxyfluorescein [FAM]-RGVVNASSRLAK as peptide substrate incubated for 3 hrs by fluorescence based analysis; parameters: species or system Human betaherpesvirus 5
[14] = Inhibition of N-terminal 6 His-tagged HHV6 protease H5A mutant (2 to 230 residues) expressed in Escherichia coli BL21 cells using 5FAM-KPSILNASLTPETVKK as peptide substrate incubated for 3 hrs by fluorescence based analysis; parameters: species or system Human betaherpesvirus 6
[15] = Inhibition of amino terminal GST tagged HCMV protease Y6A mutant (1 to 256 residues) expressed in Escherichia coli BL21 (DE3) cells using 5-carboxyfluorescein [FAM]-RGVVNASSRLAK as peptide substrate incubated for 3 hrs by fluorescence based analysis; parameters: species or system Human betaherpesvirus 5
[16] = Inhibition of N-terminal 6 His-tagged HHV6 protease Y6A mutant (2 to 230 residues) expressed in Escherichia coli BL21 cells using 5FAM-KPSILNASLTPETVKK as peptide substrate incubated for 3 hrs by fluorescence based analysis; parameters: species or system Human betaherpesvirus 6
[17] = Inhibition of N-terminal 6 His-tagged HHV6 protease W7A mutant (2 to 230 residues) expressed in Escherichia coli BL21 cells using 5FAM-KPSILNASLTPETVKK as peptide substrate incubated for 3 hrs by fluorescence based analysis; parameters: species or system Human betaherpesvirus 6
[18] = Inhibition of amino terminal GST tagged HCMV protease W7A mutant (1 to 256 residues) expressed in Escherichia coli BL21 (DE3) cells using 5-carboxyfluorescein [FAM]-RGVVNASSRLAK as peptide substrate incubated for 3 hrs by fluorescence based analysis; parameters: species or system Human betaherpesvirus 5
[19] = Inhibition of N-terminal 6 His-tagged HHV6 protease V8A mutant (2 to 230 residues) expressed in Escherichia coli BL21 cells using 5FAM-KPSILNASLTPETVKK as peptide substrate incubated for 3 hrs by fluorescence based analysis; parameters: species or system Human betaherpesvirus 6
[20] = Inhibition of amino terminal GST tagged HCMV protease V8A mutant (1 to 256 residues) expressed in Escherichia coli BL21 (DE3) cells using 5-carboxyfluorescein [FAM]-RGVVNASSRLAK as peptide substrate incubated for 3 hrs by fluorescence based analysis; parameters: species or system Human betaherpesvirus 5
[21] = Inhibition of amino terminal GST tagged HCMV protease R9A mutant (1 to 256 residues) expressed in Escherichia coli BL21 (DE3) cells using 5-carboxyfluorescein [FAM]-RGVVNASSRLAK as peptide substrate incubated for 3 hrs by fluorescence based analysis; parameters: species or system Human betaherpesvirus 5
[22] = Inhibition of N-terminal 6 His-tagged HHV6 protease R9A mutant (2 to 230 residues) expressed in Escherichia coli BL21 cells using 5FAM-KPSILNASLTPETVKK as peptide substrate incubated for 3 hrs by fluorescence based analysis; parameters: species or system Human betaherpesvirus 6

CN1C(=O)N(c2cccn([C@@H](c3ccccc3)c3cn(C4CCCC4)nc3-c3ccccc3)c2=O)C[C@@H]1C(=O)NC12CCC(CC1)NC2=O
EC50 [1]: > 25 µM | CC50 at 120 h [2]: > 25 µM | IC50 [3]: 11 µM | IC50 [4]: 9.8 µM

CN1C(=O)N(c2cccn([C@@H](c3ccccc3)c3cn(C4CCCC4)nc3-c3ccccc3)c2=O)C[C@@H]1C(=O)Nc1ccc[nH]c1=O
EC50 [1]: 38 µM | CC50 at 120 h [2]: 53 µM | inhibition [5]: 32% | IC50 [3]: 18 µM | IC50 [4]: > 99 µM

CN1C(=O)N(c2cccn([C@H](c3ccccc3)c3cn(C4CCCC4)nc3-c3ccccc3)c2=O)C[C@@H]1C(=O)Nc1ccc[nH]c1=O
EC50 [1]: 90 µM | inhibition [6]: 12% | CC50 at 120 h [2]: 89 µM | inhibition [5]: 2% | IC50 [3]: > 99 µM | IC50 [4]: > 99 µM

Cc1ccc([C@H](c2cn(C3CCCC3)nc2-c2ccccc2C)n2cccc(N3C[C@H](C(=O)NC45CCC(CC4)NC5=O)N(C)C3=O)c2=O)cc1
inhibition [5]: 39% | IC50 [3]: 50 µM | IC50 [4]: > 99 µM

CC[C@H](C)[C@H](NC(=O)[C@H](C)NC(C)=O)C(=O)N[C@H](C(=O)NCC(=O)N[C@@H](Cc1c[nH]cn1)C(=O)N[C@@H](Cc1ccc(O)cc1)C(=O)N[C@@H](Cc1c[nH]c2ccccc12)C(=O)N[C@H](C(=O)N[C@@H](CCCNC(=N)N)C(=O)N[C@@H](Cc1ccccc1)C(=O)N[C@@H](CC(C)C)C(=O)N1CCC[C@H]1C(=O)N[C@@H](CS)C(=O)NCC(N)=O)C(C)C)[C@@H](C)O (Ac-AITGHYWVRFLPCG-NH2)
IC50 [7]: 0.14 µM | IC50 [8]: 0.079 µM

CC(=O)N[C@@H](Cc1ccccc1)C(=O)N[C@@H](C)C(=O)N[C@H](C(=O)NCC(=O)N[C@@H](Cc1c[nH]cn1)C(=O)N[C@@H](Cc1ccc(O)cc1)C(=O)N[C@@H](Cc1c[nH]c2ccccc12)C(=O)N[C@H](C(=O)N[C@@H](CCCNC(=N)N)C(=O)N[C@@H](Cc1ccccc1)C(=O)N[C@@H](CC(C)C)C(=O)N1CCC[C@H]1C(=O)N[C@@H](CS)C(=O)NCC(N)=O)C(C)C)[C@@H](C)O (Ac-FATGHYWVRFLPCG-NH2)
IC50 [9]: < 0.076 µM | IC50 [10]: 0.184 µM

CC[C@H](C)[C@H](NC(=O)[C@H](Cc1ccccc1)NC(C)=O)C(=O)N[C@@H](C)C(=O)NCC(=O)N[C@@H](Cc1c[nH]cn1)C(=O)N[C@@H](Cc1ccc(O)cc1)C(=O)N[C@@H](Cc1c[nH]c2ccccc12)C(=O)N[C@H](C(=O)N[C@@H](CCCNC(=N)N)C(=O)N[C@@H](Cc1ccccc1)C(=O)N[C@@H](CC(C)C)C(=O)N1CCC[C@H]1C(=O)N[C@@H](CS)C(=O)NCC(N)=O)C(C)C (Ac-FIAGHYWVRFLPCG-NH2)
IC50 [11]: 0.157 µM | IC50 [12]: 0.1 µM

CC[C@H](C)[C@H](NC(=O)[C@H](Cc1ccccc1)NC(C)=O)C(=O)N[C@H](C(=O)NCC(=O)N[C@@H](C)C(=O)N[C@@H](Cc1ccc(O)cc1)C(=O)N[C@@H](Cc1c[nH]c2ccccc12)C(=O)N[C@H](C(=O)N[C@@H](CCCNC(=N)N)C(=O)N[C@@H](Cc1ccccc1)C(=O)N[C@@H](CC(C)C)C(=O)N1CCC[C@H]1C(=O)N[C@@H](CS)C(=O)NCC(N)=O)C(C)C)[C@@H](C)O (Ac-FITGAYWVRFLPCG-NH2)
IC50 [13]: 0.109 µM | IC50 [14]: 0.086 µM

CC[C@H](C)[C@H](NC(=O)[C@H](Cc1ccccc1)NC(C)=O)C(=O)N[C@H](C(=O)NCC(=O)N[C@@H](Cc1c[nH]cn1)C(=O)N[C@@H](C)C(=O)N[C@@H](Cc1c[nH]c2ccccc12)C(=O)N[C@H](C(=O)N[C@@H](CCCNC(=N)N)C(=O)N[C@@H](Cc1ccccc1)C(=O)N[C@@H](CC(C)C)C(=O)N1CCC[C@H]1C(=O)N[C@@H](CS)C(=O)NCC(N)=O)C(C)C)[C@@H](C)O (Ac-FITGHAWVRFLPCG-NH2)
IC50 [15]: 0.689 µM | IC50 [16]: 0.085 µM

CC[C@H](C)[C@H](NC(=O)[C@H](Cc1ccccc1)NC(C)=O)C(=O)N[C@H](C(=O)NCC(=O)N[C@@H](Cc1c[nH]cn1)C(=O)N[C@@H](Cc1ccc(O)cc1)C(=O)N[C@@H](C)C(=O)N[C@H](C(=O)N[C@@H](CCCNC(=N)N)C(=O)N[C@@H](Cc1ccccc1)C(=O)N[C@@H](CC(C)C)C(=O)N1CCC[C@H]1C(=O)N[C@@H](CS)C(=O)NCC(N)=O)C(C)C)[C@@H](C)O (Ac-FITGHYAVRFLPCG-NH2)
IC50 [17]: 0.25 µM | IC50 [18]: 0.811 µM

CC[C@H](C)[C@H](NC(=O)[C@H](Cc1ccccc1)NC(C)=O)C(=O)N[C@H](C(=O)NCC(=O)N[C@@H](Cc1c[nH]cn1)C(=O)N[C@@H](Cc1ccc(O)cc1)C(=O)N[C@@H](Cc1c[nH]c2ccccc12)C(=O)N[C@@H](C)C(=O)N[C@@H](CCCNC(=N)N)C(=O)N[C@@H](Cc1ccccc1)C(=O)N[C@@H](CC(C)C)C(=O)N1CCC[C@H]1C(=O)N[C@@H](CS)C(=O)NCC(N)=O)[C@@H](C)O (Ac-FITGHYWARFLPCG-NH2)
IC50 [19]: < 0.076 µM | IC50 [20]: 0.096 µM

CC[C@H](C)[C@H](NC(=O)[C@H](Cc1ccccc1)NC(C)=O)C(=O)N[C@H](C(=O)NCC(=O)N[C@@H](Cc1c[nH]cn1)C(=O)N[C@@H](Cc1ccc(O)cc1)C(=O)N[C@@H](Cc1c[nH]c2ccccc12)C(=O)N[C@H](C(=O)N[C@@H](C)C(=O)N[C@@H](Cc1ccccc1)C(=O)N[C@@H](CC(C)C)C(=O)N1CCC[C@H]1C(=O)N[C@@H](CS)C(=O)NCC(N)=O)C(C)C)[C@@H](C)O (Ac-FITGHYWVAFLPCG-NH2)
IC50 [21]: 0.092 µM | IC50 [22]: < 0.076 µM

CC[C@H](C)[C@H](NC(=O)[C@H](Cc1ccccc1)NC(C)=O)C(=O)N[C@H](C(=O)NCC(=O)N[C@@H](Cc1c[nH]cn1)C(=O)N[C@@H](Cc1ccc(O)cc1)C(=O)N[C@@H](Cc1c[nH]c2ccccc12)C(=O)N[C@H](C(=O)N[C@@H](CCCNC(=N)N)C(=O)N[C@@H](Cc1ccccc1)C(=O)N[C@@H](CC(C)C)C(=O)N1CCC[C@H]1C(=O)N[C@@H](CS)C(=O)NCC(N)=O)C(C)C)[C@@H](C)O (Ac-FITGHYWVRFLPCG-NH2)
IC50 [3]: < 0.076 µM | IC50 [4]: < 0.076 µM

CC[C@H](C)[C@H](NC(C)=O)C(=O)N[C@H](C(=O)NCC(=O)N[C@@H](Cc1c[nH]cn1)C(=O)N[C@@H](Cc1ccc(O)cc1)C(=O)N[C@@H](Cc1c[nH]c2ccccc12)C(N)=O)[C@@H](C)O (Ac-ITGHYW-NH2)
inhibition [6]: 21% | inhibition [5]: 2% | IC50 [3]: > 99 µM | IC50 [4]: > 99 µM

Cc1cccc(C(c2cn(C3CCCC3)nc2-c2ccccc2)n2cccc(N3C[C@H](C(=O)NC45CCC(CC4)NC5=O)N(C)C3=O)c2=O)c1 (mixture of isomers)
IC50 [3]: 27 µM | IC50 [4]: 15 µM

Cc1ccc(C(c2cn(C3CCCC3)nc2-c2ccccc2)n2cccc(N3C[C@H](C(=O)NC45CCC(CC4)NC5=O)N(C)C3=O)c2=O)cc1 (mixture of isomers)
IC50 [3]: 5 µM | IC50 [4]: 13 µM

Cc1ccccc1C(c1cn(C2CCCC2)nc1-c1ccccc1)n1cccc(N2C[C@H](C(=O)NC34CCC(CC3)NC4=O)N(C)C2=O)c1=O (mixture of isomers)
IC50 [3]: 24 µM | IC50 [4]: 30 µM
